{"source": "patent US20160290995A1", "about": "“METHODS OF SELECTING AKT AGONISTS OR ANTAGONISTS” (OREGON HEALTH & SCIENCE UNIVERSITY, priority 2015, published 2016)", "key": {"Akt [1]": {"system": "Akt", "test": "FOXO1-clover reporter live-cell imaging (relative nuclear intensity) in C3H10T1/2 fibroblasts", "assay_type": "cell-based, mouse", "settings": "for change of nuclear levels of the reporter on growth factor addition (result in words): different concentrations; for change of nuclear levels of the reporter on growth factor addition (result in words) / time to half-maximal translocation/accumulation of reporter in the cytoplasm after onset of incubation / time to maximal translocation values: cells pre-incubated in SFM; for time to half-maximal translocation/accumulation of reporter in the cytoplasm after onset of incubation / time to maximal translocation values: different growth factor concentrations; for mean rate of nuclear import of FOXO1-clover: after R3-IGF-I 250 pM; for effect of inhibitor on IGF-I-mediated reporter localization: 90 min, graded inhibitor concentrations; for IC50: Mus musculus, C3H 10T1/2", "procedure": "(§1) Cells were imaged every 2-min for 60 min. At the end of the incubation period whole cell lysates were collected.\n10T1/2 cells and C2 myoblasts were incubated in serum-free medium for 90 min. R3-IGF-I was added in supplemented FluoroBrite [0 to 500 pM], and cells were imaged every 2-min for 60 min. […]\n(§2) Live cell imaging was performed using an EVOS FL Auto microscope with a stage top incubator that was maintained at 37° C. and 95% humidified air with 5% CO2. Images were collected at 100× magnification at different intervals, using a 10× Fluorite objective (numerical aperture: 0.3), and a GFP light cube (excitation peak, 472/22 nm; emission peak, 510/42 nm). Images were analyzed with the NIH ImageJ plug-in Fiji (NIH, Bethesda, Md.), after using the Polynomial Fit plug-in to subtract background fluorescence, the Stack Reg (rigid registration) plug-in to register images, and the Gaussian Blur plug-in (at 2-pixels) to average fluorescence across pixels. Individual cells were manually tracked using the mTrackJ plug-in (Meijering E et al, Methods Enzymol 504, 183-200 (2012); incorporated by reference herein) by selecting a single point in the nucleus. Cells that died, divided, or migrated out of frame were excluded from analysis. In experiments performed in 6-well dishes, two locations on opposite sides of the well were imaged, while for studies using 24-well plates, one central location was imaged. In each location, at least 25 cells were tracked."}, "Akt [2]": {"system": "Akt", "test": "FoxO1-clover reporter live-cell imaging in HeLa cells", "assay_type": "cell-based", "settings": "IGF-I 500 pM, insulin 1400 pM, EGF 4.2 nM, PDGF-BB 4.1 nM, PDGF-AA 3.5 nM; 90 min", "procedure": "HeLa cells (ATCC #CCL2) were incubated in DMEM supplemented with 10% FBS. Cells were transduced at 50% of confluent density with concentrated FoxO1-clover virus in the presence of polybrene (6 μg/ml), as described (Gross S M and Rotwein P, Skelet Muscle 3, doi10.1186/2044-5040-3-10 (2013); incorporated by reference herein), and sorted by fluorescence intensity with a Becton-Dickinson Influx cell sorter. Reporter expression was stable for at least 10 passages in each sorted cell population. C3H10T1/2 mouse embryonic fibroblasts (ATC #CCL226) stably expressing FoxO1-clover (Gross and Rotwein, 2015), were maintained under selection with puromycin (2 μg/ml).\nas §2, with “tracked. The relative nuclear intensity of the FoxO1-clover reporter protein was calculated in each cell by normalizing the values measured at time 0 to 100%. This corresponded to incubation in serum-free medium (SFM). In graphs in which single cell responses were plotted with C3H10T1/2 cells, we applied a time-weighted smoothing filter to each data point. This consisted of averaging contributions from the two prior and two succeeding times (adding 50% of the prior or succeeding time point, and 25% of the next succeeding or earlier time point to 100% of the value of the time point in question, and then dividing by 2.5).” for “tracked.”\nShort-term responses to individual growth factors: C3H10T1/2 cells were incubated in serum-free Fluorobrite medium plus 2 mM L-glutamine and 0.1% bovine serum albumin for 90 min. Different concentrations of growth factors were added and images were collected every 2 min for 90 min. Growth factors included insulin [0 to 1400 pM], EGF [0 to 4.2 nM], PDGF-AA [0 to 1400 pM], or PDGF-BB [0 to 104 pM]. HeLa cells were incubated in serum-free Fluorobrite medium for 120 min and then incubated with insulin [1400 pM], EGF [4.2 nM], PDGF-AA [3.5 nM], PDGF-BB [4.1 nM], or R3-486 IGF-I [500 pM], with images collected every 2 min."}, "Akt phosphorylation": {"system": "Akt phosphorylation", "test": "Immunoblotting of Akt and PRAS40 phosphorylation in 10T1/2 whole cell lysates", "assay_type": "cell-based, mouse", "settings": "for time course of Akt and PRAS40 phosphorylation (result in words): insulin 1400 pM, EGF 4.2 nM, PDGF-AA 1400 pM, PDGF-BB 104 pM, up to 90 min", "procedure": "as §1\nWhole cell protein lysates were prepared as described (Mukherjee A and Rotwein P, Mol Endorcrinol 22, 1238-1250 (2008); incorporated by reference herein). Protein aliquots (15 μg/lane) were resolved by SDS-PAGE (12% separating gel), followed by transfer to Immobilon-FL membranes, and blocking with 50% AquaBlock solution. Membranes were incubated sequentially with primary and secondary antibodies, as described (Mukherjee and Rotwein, 2008 supra). Primary antibodies were incubated for 12-16 hr at a 1:1000 dilution, except for α-tubulin (1:10,000), and secondary antibodies for 90 min at 1:5000. Images were captured using the LiCoR Odyssey and version 3.0 analysis software (Lincoln, Nebr.).\nC3H10T1/2 cells stably expressing FoxO1-clover were incubated in SFM with Fluorobrite imaging media for 90 min followed by addition of insulin [1400 pM], EGF [4.2 nM], PDGF-AA [1400 pM], or PDGF BB [104 pM]. Whole protein lysates were collected after 0, 5, 15, 30, 60, and 90 min of growth factor exposure by washing cells twice with cold PBS and addition of RIPA buffer containing protease and phosphatase inhibitors (Mukherjee A and Rotwein P, Mol Endocrinol 22, 1238-1250 (2008); incorporated by reference herein). Protein aliquots (12.5 μg/lane) were resolved by SDS PAGE (10% separating gels), and transferred onto Immobilon-FL membranes. Membranes were incubated in 50% AquaBlock for 60 min, followed by addition of primary antibodies at 1:1000 dilution for 16 hr, and secondary antibodies for 90 min at 1:5000. Images were collected using the LiCoR Odyssey and analysis software version 3.0 (Lincoln, Nebr.)."}, "[3]": {"settings": "two highest concentrations of PDGF-AA"}, "[4]": {"settings": "higher concentrations of PDGF-BB"}, "[5]": {"settings": "lower growth factor concentrations"}}, "note": "Where two headings read alike, the source gives them in different places."}
{"compound": "EGF: mouse EGF (Gibco-Life Technologies), peptide growth factor (NSYPGCPSSYDGYCLNGGVCMHIESLDSYTCNCVIGYSGDRCQTRDLRWWELR; Epidermal growth factor; UniProt P01132 977-1029, looked up)", "values": [{"measurement": "change of nuclear levels of the reporter on growth factor addition (result in words)", "setting": "Akt [1]; population level", "value": "rapid, dose-dependent, and transient decreases in nuclear levels of the FoxO1-clover reporter protein"}, {"measurement": "time by which signal intensity was waning", "setting": "Akt [1]; population level, after EGF treatment", "value": 45, "unit": "min"}, {"measurement": "time to half-maximal translocation/accumulation of reporter in the cytoplasm after onset of incubation", "setting": "Akt [1]; population level", "value": "6 to 9", "unit": "min"}, {"measurement": "time to maximal translocation values", "setting": "Akt [1]; population level", "value": "~13", "unit": "min"}, {"measurement": "response to a second treatment with the same growth factor", "setting": "Akt [1]; sequential exposures, IGF-I 50 or 500 pM with 90-min washout, EGF 4.2 nM after 60 min EGF", "value": "minimally promoted FoxO1-clover reporter translocation out of the nucleus"}, {"measurement": "signaling response in HeLa FoxO1-clover cells (result in words)", "setting": "Akt [2]", "value": "transient responses"}, {"measurement": "time course of Akt and PRAS40 phosphorylation (result in words)", "setting": "Akt phosphorylation", "value": "Similarly transient effects"}]}
{"compound": "CCC(=C/[C@H](C)C/C=C/C(C)=C/[C@@H](C)C(=O)[C@@H](C)[C@H](O)[C@@H](C)C/C(C)=C/C(=O)O)/C=C/[C@@H]1OC(=O)C=C[C@@H]1C", "note": "[leptomycin B, reference compound]", "values": [{"measurement": "half-maximal time of nuclear appearance of reporter after leptomycin B", "setting": "Akt [1]; leptomycin B 100 nM after 60 min IGF-I 25 pM", "value": "~5", "unit": "min"}, {"measurement": "half-maximal time of nuclear appearance of reporter after leptomycin B", "setting": "Akt [1]; leptomycin B 100 nM after 60 min IGF-I 250 pM", "value": "~25", "unit": "min"}, {"measurement": "change of nuclear intensity of the reporter after subsequent leptomycin", "setting": "Akt [1]; leptomycin B 100 nM after PI103 in SFM", "value": "nearly a doubling"}, {"measurement": "mean rate of nuclear import of FOXO1-clover", "setting": "Akt [1]; leptomycin B 100 nM alone, single exponential fit of individual cells", "value": "~3", "unit": "% per min"}]}
{"compound": "PDGF-AA: recombinant human PDGF-AA (Thermo Scientific); binds almost exclusively to the PDGF-α receptor", "values": [{"measurement": "change of nuclear levels of the reporter on growth factor addition (result in words)", "setting": "Akt [1]; population level", "value": "rapid, dose-dependent decreases in nuclear levels of FoxO1-clover"}, {"measurement": "decline of population response from peak values", "setting": "Akt [1]; over the next 40 min after the peak", "value": "50-75%"}, {"measurement": "time to half-maximal translocation/accumulation of reporter in the cytoplasm after onset of incubation", "setting": "Akt [1]; population level", "value": "6 to 10", "unit": "min"}, {"measurement": "time to maximal translocation values", "setting": "Akt [1]; population level", "value": "~14", "unit": "min"}, {"measurement": "fraction of cells demonstrating sustained effects", "setting": "Akt [1]; [3]", "value": "10-15%"}, {"measurement": "fraction of cells showing no or minimal responses", "setting": "Akt [1]; [3]", "value": "25-30%"}, {"measurement": "signaling response in HeLa FoxO1-clover cells (result in words)", "setting": "Akt [2]", "value": "ineffective"}, {"measurement": "time course of Akt and PRAS40 phosphorylation (result in words)", "setting": "Akt phosphorylation", "value": "Similarly brief effects"}]}
{"compound": "C[C@]1(O)C[C@@H](c2nc(-c3ccc4ccc(-c5ccccc5)nc4c3)c3c(N)nccn32)C1", "note": "[Linsitinib, reference compound]", "values": [{"measurement": "effect of inhibitor on IGF-I-mediated reporter localization", "setting": "Akt [1]; IGF-I 500 pM", "value": "dose-dependent decline in maximal IGF-I-mediated cytoplasmic localization of the FoxO1-clover reporter molecule"}]}
{"compound": "PDGF-BB: recombinant human PDGF-BB (Invitrogen); binds PDGF-α and PDGF-β receptors", "values": [{"measurement": "duration of maintained cytoplasmic localization of the reporter", "setting": "Akt [1]; [4]", "value": "at least 90 min"}, {"measurement": "time to half-maximal accumulation of FoxO1-clover in the cytoplasm", "setting": "Akt [1]; [4]", "value": "< 5", "unit": "min"}, {"measurement": "time to half-maximal accumulation of FoxO1-clover in the cytoplasm", "setting": "Akt [1]; [5]", "value": "8 to 9", "unit": "min"}, {"measurement": "time to maximal values", "setting": "Akt [1]; [5]", "value": "~14", "unit": "min"}, {"measurement": "fraction of cells showing large and sustained signaling responses", "setting": "Akt [1]; peak concentrations of PDGF-BB", "value": "90-99%"}, {"measurement": "subcellular localization of FOXO1-clover (result in words)", "setting": "Akt [1]; serum-starved cells, 60 min, 10% FBS, PDGF-BB 206 pM, R3-IGF-I 1 nM, BMP-2 15 nM", "value": "rapid and sustained translocation of the reporter from the nucleus to the cytoplasm"}, {"measurement": "signaling response in HeLa FoxO1-clover cells (result in words)", "setting": "Akt [2]", "value": "transient responses"}, {"measurement": "Akt phosphorylation (pAkt T308 immunoblot)", "setting": "Akt phosphorylation; 60 min, 10% FBS, PDGF-BB 206 pM, R3-IGF-I 1 nM, BMP-2 15 nM", "value": "stimulation of Akt phosphorylation"}, {"measurement": "time course of Akt and PRAS40 phosphorylation (result in words)", "setting": "Akt phosphorylation", "value": "Similarly sustained signaling"}]}
{"compound": "Oc1cccc(-c2nc(N3CCOCC3)c3oc4ncccc4c3n2)c1", "note": "[PI103, reference compound]", "values": [{"measurement": "fraction of reporter in the nucleus", "setting": "Akt [1]; 60 min after PI103 500 nM, following 60 min IGF-I 250 pM, scaled 0% = IGF-I, 100% = leptomycin", "value": "~56", "unit": "%"}, {"measurement": "effect of inhibitor on IGF-I-mediated reporter localization", "setting": "Akt [1]; IGF-I 500 pM", "value": "dose-dependent decline in maximal IGF-I-mediated cytoplasmic localization of the FoxO1-clover reporter molecule"}, {"measurement": "enhancement of mean rate of nuclear import by inhibition of PI3-kinase", "setting": "Akt [1]; Lepto plus PI103 vs Lepto alone", "value": "up to 4 fold"}, {"measurement": "IC50", "setting": "Akt [1]; IGF-I 500 pM, read-out: IC50 for IGF-I-mediated signaling", "value": "50 to 200", "unit": "nM"}, {"measurement": "IC50", "setting": "Akt [1]; PDGF-BB 830 pM, read-out: IC50 for PDGF-BB-mediated signaling", "value": "20 to 50", "unit": "nM"}, {"measurement": "increase in nuclear localization of the reporter compared with serum-free medium alone", "setting": "Akt [1]; PI103 500 nM added to cells in SFM", "value": "~10", "unit": "%"}, {"measurement": "time after addition of PI103 at which N/C=1", "setting": "Akt [1]; PI103 500 nM after IGF-I 250 pM", "value": "~15", "unit": "min"}, {"measurement": "mean rate of nuclear import of FOXO1-clover", "setting": "Akt [1]; leptomycin B 100 nM plus PI103 500 nM", "value": "> 12", "unit": "% per min"}]}
